Like-named read-outs stand apart in the source and are kept apart here.

Consider 2 molecules from patent US20160325113A1, “Phototherapy Devices and Methods Comprising Optionally Substituted Quinquiesphenyl Compounds” (NITTO DENKO CORPORATION, priority 2012, published 2016).

Assay [1] has as its system actinic keratoses lesions. Kind of assay: Topical photosensitizer plus red OLED illumination of actinic keratoses lesions. Conditions: 20% topical solution; illuminated with red OLED about 14-18 hours after application.
Description: About 14-18 hours after application, the treated lesions are illuminated with a red light-emitting OLED device constructed as set forth in Example 2.
The treatment is repeated as needed.
The excess cream is removed with saline, and the lesions are illuminated with the red light-emitting OLED constructed as set forth in Example 2.
Assay [2] can be described thus: Intravenous verteporphin plus red OLED illumination of the retina, age-related macular degeneration. It is filed as in vivo, person. Conditions: about 6 mg/m^2 i.v.; retina illuminated with red OLED about 15 minutes after start of infusion.
Description: Verteporphin is intravenously injected, over a period of about 10 minutes at a rate of about 3 mL/min, to a person suffering from age-related macular degeneration. The verteporphin (7.5 mL of 2 mg/mL reconstituted solution, available as Visudyne® from Novartis) is diluted with 5% dextrose to a volume of 30 mL using a sufficient quantity of the reconstituted verteporphin so that the total dose injected is about 6 mg/m^2 of body surface. About 15 minutes after the start of the 10 minute infusion of verteporphin, the verteporphin is activated by illuminating the retina with a red light-emitting OLED device as set forth in Example 2.
Assay [3] in a line: Intravenous verteporphin plus red OLED illumination of the retina, pathological myopia. The assay is classed as in vivo, person. Particulars: about 6 mg/m^2 i.v.; retina illuminated with red OLED about 15 minutes after start of infusion.
Description: Verteporphin is intravenously injected, over a period of about 10 minutes at a rate of about 3 mL/min, to a person suffering from pathological myopia. The verteporphin (7.5 mL of 2 mg/mL reconstituted solution, available as Visudyne® from Novartis) is diluted with 5% dextrose to a volume of 30 mL using a sufficient quantity of the reconstituted verteporphin so that the total dose injected is about 6 mg/m^2 of body surface. About 15 minutes after the start of the 10 minute infusion of verteporphin, the verteporphin is activated by illuminating the retina with a red light-emitting OLED device as set forth in Example 2. […] The treatment is repeated as needed.
Details of assay [4]: species or system person. Conditions: in vivo, iv.

In the case of `Cl.NCC(=O)CCC(=O)O` [5-Aminolevulinic acid HCl], in assay [1], the “number or severity of the lesions after treatment” value is given as “reduced”.
`C=Cc1c(C)c2cc3nc(cc4[nH]c(cc5nc(cc1[nH]2)C(C)=C5CCC(=O)O)c(CCC(=O)OC)c4C)[C@@]1(C)C3=CC=C(C(=O)OC)[C@H]1C(=O)OC` [Verteporphin]: the “patient's vision after treatment” value in assay [2], in assay [3] and in assay [4] was “stabilized” throughout.
